What all share (type): in vivo, Sprague-Dawley rats
Assay [1] concerns urethane anesthetized rat. In words: Cerebral blood perfusion by Laser Doppler Flowmetry. The conditions noted are these: for effect of pretreatment on the effect of ET-1 on cerebral blood flow: BMS 5 and 15 mg/kg, i.v., ET-1 0.75 μg/kg, FIG. 7. As for the experimental part:
(§1) Male Sprague-Dawley rats weighing 323±4 grams (g) were anesthetized with urethane (ethyl carbamate, Sigma Aldrich, St. Louis, Mo.) dissolved in isotonic saline (0.9% NaCl, Hospira, Inc., Lake Forest, Ill.). The rats were administered a dose of 0.15 g per 100 g body weight via intraperitoneal (i.p.) injection.
Cerebral Perfusion: A burr hole was drilled into the rat skull about 2 millimeters (mm) to the left of midline. Cerebrovascular perfusion was measured via a fiber optic probe (PF407) applied to the surface of the rat brain. The probe was connected to a Periflux PF2b 4000 Laser Doppler Flowmetry unit (Perimed, Stockholm, Sweden).
(§2) The rats were randomly selected for various studies. Following surgery the rats were allowed to stabilize for 30 minutes and a 15 minutes baseline recording of all parameters (blood pressure, heart rate, cerebral blood flow, and renal blood flow) was obtained prior to the administration of the pretreatment followed by IRL-1620 (Suc-[Glu 9, Ala 11,15], American Peptide Co, Inc., Sunnyville, Calif.) or ET-1 (Ala 1,3,11,15, RBI Sigma, Natick, Mass.). BQ-788, a selective endothelin B antagonist, is the sodium salt of N-cis-2,6-dimethylpiperidinocarbonyl-L-gamma-methylleucyl-D-1-methoxycarbonyl triptophanyl-DNIe (see Proc. Natl. Acad. Sci. USA, 91, pp. 4892-4896 (1994)) BMS is BMS 182, 874, which is a selective endothelin A antagonist having a structure
(§3) Group 1: Animals (n=4) were pretreated with saline 15 minutes (min) prior to administration of IRL-1620 (5 μg/kg, i.v.).
(§4) Group 2: Animals (n=4) were pretreated with BMS (5 mg/kg, i.v.) 15 min prior to administration of IRL-1620 (5 μg/kg, i.v.).
(§5) Group 3: Animals (n=4) were pretreated with BMS (15 mg/kg, i.v.) 15 min prior to administration of IRL-1620 (5 μg/kg, i.v.).
(§6) Group 4: Animals (n=4) were pretreated with BQ788 (1 μg/kg, i.v.) 15 min prior to administration of IRL-1620 (5 μg/kg, i.v.).
(§7) Group 1: Animals (n=4) were pretreated with saline 15 min prior to administration of ET-1 (0.75 μg/kg, i.v.).
(§8) Group 2: Animals (n=4) were pretreated with BMS (5 mg/kg, i.v.) 15 min prior to administration of ET-1 (0.75 μg/kg, i.v.).
(§9) Group 3: Animals (n=4) were pretreated with BMS (15 mg/kg, i.v.) 15 min prior to administration of ET-1 (0.75 μg/kg, i.v.).
(§10) Group 4: Animals (n=4) were pretreated with BQ788 (1 μg/kg, i.v.) 15 min prior to administration of ET-1 (0.75 μg/kg, i.v.).
(§11) Blood pressure, heart rate, cerebral blood perfusion, and renal blood perfusion all were recorded for 2 hours following the final injection. Blood gases were analyzed prior to administration of any drugs, and at 60 and 120 min following administration of IRL-1620 or ET-1. At the end of each experiment, the animals were euthanized with an overdose of urethane i.v. In the figures, all data values are presented as mean±SEM. One-sample t-tests and one-way ANOVAs were used to test the differences within and between the groups. A P value of P<0.05 was considered significant.

Assay [2] deals with urethane anesthetized rat. In words: Renal blood perfusion by Laser Doppler Flowmetry. As to conditions: BMS 5 and 15 mg/kg, i.v., BQ788 1 μg/kg; for effect of pretreatment on the effect of ET-1 on renal blood flow: ET-1 0.75 μg/kg, FIG. 10; for effect of pretreatment on the effect of IRL-1620 on renal blood flow: IRL-1620 5 μg/kg, FIG. 9. As for the experimental part:
as §1
Renal Perfusion: The right kidney was dissected retroperitoneally. Renal perfusion was measured via a fiber optic probe (PF408) applied to the surface of the rat kidney. The probe was connected to a Periflux PF2b 4000 Laser Doppler Flowmetry unit (Perimed, Stockholm, Sweden).
as §2, §3, §4, §5, §6, §7, §8, §9, §10, §11

Assay [3] concerns urethane anesthetized rat. Briefly: Blood pressure / mean arterial pressure recording. The conditions noted are these: BMS 5 and 15 mg/kg, i.v., BQ788 1 μg/kg; for effect of pretreatment on the effect of ET-1 on mean arterial pressure: ET-1 0.75 μg/kg, FIG. 13; for effect of pretreatment on the effect of IRL-1620 on mean arterial pressure: IRL-1620 5 μg/kg, FIG. 12. The method, then: as §1
(§12) Blood Pressure and Heart Rate: The femoral vein and artery were cannulated. The arterial cannula was connected to a Gould P23 ID pressure transducer for recording the blood pressure on a Grass P7D polygraph through a 7PI preamplifier. The heart rate was recorded through a 7P4B Grass tachograph, triggered from blood pressure signals. Drugs were administered via the venous cannula.
as §2, §3, §4, §5, §6, §7, §8, §9, §10, §11

Assay [4] deals with urethane anesthetized rat. In words: Heart rate recording. The conditions noted are these: IRL-1620 5 μg/kg, i.v.; for heart rate: mean±SEM, in bpm (unit assumed); for effect of pretreatment on the effect of IRL-1620 on heart rate (Table 1): BMS 5 and 15 mg/kg, BQ788. The method, then: as §1, §12, §2, §3, §4, §5
Group 4: Animals (n=4) were pretreated with BQ788 (1 μg/kg, i.v.) 15 min prior to administration of IRL-1620 (5 μg/kg, i.v.). […]
as §11

This is an account of results in patent US9493524B2, “Methods for treatment of stroke or cerebrovascular accidents using an ETB receptor agonist” (MIDWESTERN UNIVERSITY, priority 2007, dated 2016).

With `Cc1noc(NS(=O)(=O)c2cccc3c(N(C)C)cccc23)c1C` [BMS], in assay [1] (BQ788 1 μg/kg), the “effect of pretreatment on the effect of ET-1 on cerebral blood flow” value was “no significant change”. The “transient increase in cerebral blood flow” value in assay [1] (high dose of BMS (15 mg/kg, i.v.) pretreatment, 1 minute after administration of IRL-1620 5 μg/kg, FIG. 6) was determined as 37.99%. Also, the “effect of pretreatment on the effect of ET-1 on renal blood flow” value in assay [2] is given as “No pretreatment significantly altered”. For the same molecule, the “effect of pretreatment on the effect of IRL-1620 on renal blood flow” value in assay [2] is given as “sustained decrease in renal blood flow up to 120 minutes”. Further, the “effect of pretreatment on the effect of ET-1 on mean arterial pressure” value in assay [3] is listed as “failed to alter”. Also, in assay [3], the “effect of pretreatment on the effect of IRL-1620 on mean arterial pressure” value is given as “transient hypotension similar to that observed in animals pretreated with saline”. Also, the heart rate in assay [4] (5 mg/kg BMS pretreatment, time 0 min) is 339 ± 6; in assay [4] (5 mg/kg BMS pretreatment, time 1 min), 365 ± 4; in assay [4] (5 mg/kg BMS pretreatment, time 5 min) it was 357 ± 13; in assay [4] (5 mg/kg BMS pretreatment, time 10 min) it was 345 ± 14; in assay [4] (5 mg/kg BMS pretreatment, time 15 min) it was 345 ± 14; in assay [4] (5 mg/kg BMS pretreatment, time 30 min) it was 356 ± 12. The heart rate in assay [4] (5 mg/kg BMS pretreatment, time 45 min) was found to be 367 ± 14; in assay [4] (5 mg/kg BMS pretreatment, time 60 min), 370 ± 14; in assay [4] (5 mg/kg BMS pretreatment, time 90 min), 350 ± 9; in assay [4] (5 mg/kg BMS pretreatment, time 120 min) it was 327 ± 12; in assay [4] (15 mg/kg BMS pretreatment, time 0 min), 405 ± 11; in assay [4] (15 mg/kg BMS pretreatment, time 1 min), 425 ± 11. The heart rate in assay [4] (15 mg/kg BMS pretreatment, time 5 min) was 382 ± 13; in assay [4] (15 mg/kg BMS pretreatment, time 10 min), 380 ± 11; in assay [4] (15 mg/kg BMS pretreatment, time 15 min), 384 ± 11; in assay [4] (15 mg/kg BMS pretreatment, time 30 min), 387 ± 17; in assay [4] (15 mg/kg BMS pretreatment, time 45 min), 387 ± 21; in assay [4] (15 mg/kg BMS pretreatment, time 60 min) it was 395 ± 19. For the same molecule, the heart rate in assay [4] (15 mg/kg BMS pretreatment, time 90 min) was found to be 393 ± 21; in assay [4] (15 mg/kg BMS pretreatment, time 120 min), 386 ± 18. For the same molecule, the “effect of pretreatment on the effect of IRL-1620 on heart rate (Table 1)” value in assay [4] is recorded as “increase”.

As to `CCCC[C@@H](NC(=O)[C@@H](Cc1cn(C(=O)OC)c2ccccc12)NC(=O)[C@H](CC(C)(C)C)NC(=O)N1[C@H](C)CCC[C@@H]1C)C(=O)O` [BQ788, N-cis-2,6-dimethylpiperidinocarbonyl-L-gamma-methylleucyl-D-1-methoxycarbonyl triptophanyl-DNIe], the “effect of pretreatment on the effect of ET-1 on cerebral blood flow” value in assay [1] (BQ788 1 μg/kg) is on record as “no significant change”. Besides, in assay [1] (BQ788 1 μg/kg, i.v. 15 min prior to IRL-1620 5 μg/kg, FIG. 6), the “effect of pretreatment on the effect of IRL-1620 on cerebral blood flow” value was “effectively blocked”. Moreover, the “effect of pretreatment on the effect of ET-1 on renal blood flow” value in assay [2] is “No pretreatment significantly altered”. In assay [2], the “effect of pretreatment on the effect of IRL-1620 on renal blood flow” value is reported as “effectively blocked”. Moreover, the “effect of pretreatment on the effect of ET-1 on mean arterial pressure” value in assay [3] is on record as “failed to alter”. The “effect of pretreatment on the effect of IRL-1620 on mean arterial pressure” value in assay [3] is “effectively blocked”. In addition, the heart rate in assay [4] (1 μg/kg BQ788 pretreatment, time 0 min) was found to be 344 ± 5; in assay [4] (1 μg/kg BQ788 pretreatment, time 1 min), 350 ± 6; in assay [4] (1 μg/kg BQ788 pretreatment, time 5 min), 345 ± 4; in assay [4] (1 μg/kg BQ788 pretreatment, time 10 min), 345 ± 4; in assay [4] (1 μg/kg BQ788 pretreatment, time 15 min), 347 ± 3; in assay [4] (1 μg/kg BQ788 pretreatment, time 30 min) it was 347 ± 4. In addition, the heart rate in assay [4] (1 μg/kg BQ788 pretreatment, time 45 min) came out at 350 ± 6; in assay [4] (1 μg/kg BQ788 pretreatment, time 60 min), 351 ± 9; in assay [4] (1 μg/kg BQ788 pretreatment, time 90 min), 351 ± 13; in assay [4] (1 μg/kg BQ788 pretreatment, time 120 min), 353 ± 13. Further, the “effect of pretreatment on the effect of IRL-1620 on heart rate (Table 1)” value in assay [4] is “effectively blocked”.
